Data on 46 molecules can be found in patent US11591336B2 (Relay Therapeutics, Inc., priority 2017, dated 2023).

The assay concerns the target SHP2 (Homo sapiens (Human), UniProt Q06124). Nature of the assay: SHP2 Allosteric Inhibition Assay (DiFMUP prompt fluorescence). The format is biochemical. To be noted: 0.25 nM SHP2 activated with 0.5 μM peptide IRS1_pY1172(dPEG8)pY1222; substrate DiFMUP 100 μM; 25° C.

SMILES strings stand for the structures. Structures can show the parent of a compound that is named as a salt. Where only a bound is given, the exact number is not on record here.

Sequence of SHP2 (Q06124 whole entry): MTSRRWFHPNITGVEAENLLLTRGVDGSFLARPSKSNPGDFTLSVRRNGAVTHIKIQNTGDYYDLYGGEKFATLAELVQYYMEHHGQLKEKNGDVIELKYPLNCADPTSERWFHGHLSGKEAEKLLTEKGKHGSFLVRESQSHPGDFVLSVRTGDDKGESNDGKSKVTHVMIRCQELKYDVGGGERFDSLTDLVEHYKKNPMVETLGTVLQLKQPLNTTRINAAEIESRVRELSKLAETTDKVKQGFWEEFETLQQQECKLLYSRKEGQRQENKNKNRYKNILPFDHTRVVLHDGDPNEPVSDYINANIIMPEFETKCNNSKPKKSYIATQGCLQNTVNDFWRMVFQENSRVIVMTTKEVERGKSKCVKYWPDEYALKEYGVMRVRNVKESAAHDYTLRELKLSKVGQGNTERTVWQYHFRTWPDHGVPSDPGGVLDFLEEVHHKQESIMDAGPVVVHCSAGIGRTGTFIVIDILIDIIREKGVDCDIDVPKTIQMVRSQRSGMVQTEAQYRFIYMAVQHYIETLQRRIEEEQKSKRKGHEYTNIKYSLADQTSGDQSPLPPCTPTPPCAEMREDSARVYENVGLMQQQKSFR

With `N[C@@H]1CC(O)CC12CCN(c1cnc3c(N4CCCc5ncccc54)n[nH]c3n1)CC2` (stereo in doubt) [Compound 468, (2R,4R)-4-amino-8-(3-(3,4-dihydro-1,5-naphthyridin-1(2H)-yl)-1H-pyrazolo[3,4-b]pyrazin-6-yl)-8-azaspiro[4.5]decan-2-ol], the IC50 is less than 1 µM.

`NC1CCCC12CCN(c1cnc3c(Sc4cccnc4C(F)(F)F)n[nH]c3n1)CC2` (stereo in doubt) [Compound 476, (S)-8-(3-((2-(trifluoromethyl)pyridin-3-yl)thio)-1H-pyrazolo[3,4-b]pyrazin-6-yl)8-azaspiro[4.5]decan-1-amine] came in with an IC50 of less than 1 µM.

The molecule `Cn1nc(Sc2ccncc2)c2ncc(N3CCC(C)(N)CC3)nc21` [Cmpd 487] registered a half-maximal inhibitory concentration (IC50) of no less than 10 µM. In the case of `CC1CNCC(Sc2n[nH]c3nc(N4CCC(C)(N)CC4)cnc23)C1` (stereo not shown) [Cmpd 490] it was no less than 10 µM; in that of `CC1(CN)CCN(c2cnc3c(Sc4ccccc4)n[nH]c3n2)CC1` [Compound 7, (4-methyl-1-(3-(phenylthio)-1H-pyrazolo[3,4-b]pyrazin-6-yl)piperidin-4-yl)methanamine], less than 1 µM. In turn, `CC1(N)CCN(c2cnc3c(Sc4cccnc4C(F)(F)F)n[nH]c3n2)CC1` [Compound 8, 4-methyl-1-(3-((2-(trifluoromethyl)pyridin-3-yl)thio)-1H-pyrazolo[3,4-b]pyrazin-6-yl)piperidin-4-amine] gave an IC50 of less than 1 µM. `CC1(CN)CCN(c2cnc3c(Sc4ccccc4Cl)n[nH]c3n2)CC1` [Compound 9, (1-(3-((2-chlorophenyl)thio)-1H-pyrazolo[3,4-b]pyrazin-6-yl)-4-methylpiperidin-4-yl)methanamine] registered an IC50 of less than 1 µM. In the case of `CC1(N)CCN(c2cnc3c(Sc4ccccc4C#N)n[nH]c3n2)CC1` [Compound 10, 2-((6-(4-amino-4-methylpiperidin-1-yl)-1H-pyrazolo[3,4-b]pyrazin-3-yl)thio)benzonitrile] it was less than 1 µM. The result for `CC1(CN)CCN(c2cnc3c(Nc4ccccc4Cl)n[nH]c3n2)CC1` [Compound 11, 6-(4-(aminomethyl)-4-methylpiperidin-1-yl)-N-(2-chlorophenyl)-1H-pyrazolo[3,4-b]pyrazin-3-amine] reads less than 1 µM; that for `CC1(N)CCN(c2cnc3c(Nc4cccnc4Cl)n[nH]c3n2)CC1` [Compound 12, 6-(4-amino-4-methylpiperidin-1-yl)-N-(2-chloropyridin-3-yl)-1H-pyrazolo[3,4-b]pyrazin-3-amine], 1 to 10 µM. The molecule `CC1(N)CCN(c2cnc3c(Sc4cccc(Cl)c4Cl)n[nH]c3n2)CC1` [Compound 13, 1-(3-((2,3-dichlorophenyl)thio)-1H-pyrazolo[3,4-b]pyrazin-6-yl)-4-methylpiperidin-4-amine] registered a concentration for half-maximal inhibition (IC50) of less than 1 µM.

The molecule `Cn1ccnc1Sc1n[nH]c2nc(N3CCC(C)(N)CC3)cnc12` [Compound 14, 4-methyl-1-(3-((1-methyl-1H-imidazol-2-yl)thio)-1H-pyrazolo[3,4-b]pyrazin-6-yl)piperidin-4-amine] came in with an IC50 of no less than 10 µM. Molecule `CC1(CN)CCN(c2cnc3c(Cc4ccccc4)n[nH]c3n2)CC1` [Compound 15, (1-(3-benzyl-1H-pyrazolo[3,4-b]pyrazin-6-yl)-4-methylpiperidin-4-yl)methanamine] had an IC50 of 1 to 10 µM. In the case of `C=C(c1ccccc1)c1n[nH]c2nc(N3CCC(C)(CN)CC3)cnc12` [Compound 16, (4-methyl-1-(3-(1-phenylvinyl)-1H-pyrazolo[3,4-b]pyrazin-6-yl)piperidin-4-yl)methanamine], the half-inhibitory concentration (IC50) is less than 1 µM.

In the case of `CC(c1ccccc1)c1n[nH]c2nc(N3CCC(C)(CN)CC3)cnc12` (stereo not shown) [Compound 17, (4-methyl-1-(3-(1-phenylethyl)-1H-pyrazolo[3,4-b]pyrazin-6-yl)piperidin-4-yl)methanamine], the IC50 fell in the range of 1 to 10 µM. The molecule `CC1(CN)CCN(c2cnc3c(C(=O)c4ccccc4)n[nH]c3n2)CC1` [Compound 18, (6-(4-(aminomethyl)-4-methylpiperidin-1-yl)-1H-pyrazolo[3,4-b]pyrazin-3-yl)(phenyl)methanone] came in with an IC50 of 1 to 10 µM. In the case of `CC1(CN)CCN(c2cnc3c(C(C)(O)c4ccccc4)n[nH]c3n2)CC1` (stereo not shown) [Compound 19, 1-(6-(4-(aminomethyl)-4-methylpiperidin-1-yl)-1H-pyrazolo[3,4-b]pyrazin-3-yl)-1-phenylethanol] it was 1 to 10 µM; in that of `CC1(N)CCN(c2cnc3c(-n4cnc5ccccc54)n[nH]c3n2)CC1` [Compound 20, 1-(3-(1H-benzo[d]imidazol-1-yl)-1H-pyrazolo[3,4-b]pyrazin-6-yl)-4-methylpiperidin-4-amine], 1 to 10 µM. The result for `CC1(N)CCN(c2cnc3c(N4CCc5ccccc54)n[nH]c3n2)CC1` [Compound 21] reads less than 1 µM; that for `CC1(N)CCN(c2cnc3c(N4CCCn5nccc54)n[nH]c3n2)CC1` [Compound 22], less than 1 µM. Molecule `CC1(CN)CCN(c2cnc3c(N4CCCc5ncccc54)n[nH]c3n2)C1` (stereo not shown) [Compound 26, (1-(3-(3,4-dihydro-1,5-naphthyridin-1(2H)-yl)-1H-pyrazolo[3,4-b]pyrazin-6-yl)-3-methylpyrrolidin-3-yl)methanamine dihydrochloride] displayed an IC50 of less than 1 µM. On to `CC1(N)CCN(c2cnc3c(N4CCCc5ccncc54)n[nH]c3n2)CC1` [Compound 27], for which the half-maximal inhibitory concentration (IC50) is no less than 10 µM. Molecule `CC1(N)CCN(c2cnc3c(N4CCNc5ccccc54)n[nH]c3n2)CC1` [Compound 29] came in with an IC50 of 1 to 10 µM. Take `CC1(N)CCN(c2cnc3c(N4CCCc5cnccc54)n[nH]c3n2)CC1` [Compound 30]: the concentration for half-maximal inhibition (IC50) lay within 1 to 10 µM. Regarding `CC1(N)CCN(c2cnc3c(N4CCOc5ncccc54)n[nH]c3n2)CC1` [Compound 31], the concentration for half-maximal inhibition (IC50) is less than 1 µM. The result for `CC1(N)CCN(c2cnc3c(N4CCC(=O)c5ccccc54)n[nH]c3n2)CC1` [Compound 32] reads less than 1 µM. `CC1(CN)CCN(c2cnc3c(N4CCCc5ccccc54)n[nH]c3n2)CC1` [Compound 33, (1-(3-(3,4-dihydroquinolin-1(2H)-yl)-1H-pyrazolo[3,4-b]pyrazin-6-yl)-4-methylpiperidin-4-yl)methanamine]: the IC50 is less than 1 µM. In the case of `CC1CCc2ccccc2N1c1n[nH]c2nc(N3CCC(C)(N)CC3)cnc12` (stereo not shown) [Compound 34] it was less than 1 µM; in that of `C[C@H]1CCc2ccccc2N1c1n[nH]c2nc(N3CCC(C)(N)CC3)cnc12` [Compound 35], less than 1 µM; in that of `C[C@@H]1CCc2ccccc2N1c1n[nH]c2nc(N3CCC(C)(N)CC3)cnc12` [Compound 36], 1 to 10 µM. As for `CC1Cc2ccccc2N(c2n[nH]c3nc(N4CCC(C)(N)CC4)cnc23)C1` (stereo not shown) [Compound 38], the IC50 lay in the range of 1 to 10 µM. Molecule `CC1(N)CCN(c2cnc3c(N4C(=O)CCc5ncccc54)n[nH]c3n2)CC1` [Compound 39, 1-(6-(4-amino-4-methylpiperidin-1-yl)-1H-pyrazolo[3,4-b]pyrazin-3-yl)-3,4-dihydro-1,5-naphthyridin-2(1H)-one] returned a 50% inhibitory concentration (IC50) of 1 to 10 µM. `CC1(CN)CCN(c2cnc3c(N4CCCc5cccnc54)n[nH]c3n2)CC1` [Compound 40] registered a half-maximal inhibitory concentration (IC50) of 1 to 10 µM. The molecule `CC1(N)CCN(c2cnc3c(N4CCCc5c4ccnc5N)n[nH]c3n2)CC1` [Compound 42, 1-(6-(4-amino-4-methylpiperidin-1-yl)-1H-pyrazolo[3,4-b]pyrazin-3-yl)-1,2,3,4-tetrahydro-1,6-naphthyridin-5-amine] registered an IC50 of 1 to 10 µM. For the molecule `CC1(N)CCN(c2cnc3c(N4CCCn5c4cccc5=O)n[nH]c3n2)CC1` [Compound 43], the IC50 was no less than 10 µM. `Cc1ccc2c(c1)N(c1n[nH]c3nc(N4CCC(C)(CN)CC4)cnc13)CCC2` [Compound 44]: the IC50 lay in the range of 1 to 10 µM.

`Cc1ccc2c(c1)CCCN2c1n[nH]c2nc(N3CCC(C)(CN)CC3)cnc12` [Compound 45]: the half-inhibitory concentration (IC50) was less than 1 µM.

`Cc1cccc2c1CCCN2c1n[nH]c2nc(N3CCC(C)(CN)CC3)cnc12` [Compound 46] returned an IC50 of less than 1 µM.

As for `CC1(N)CCN(c2cnc3c(N4CCCC(c5ccccc5)C4)n[nH]c3n2)CC1` (stereo not shown) [Compound 47], the half-inhibitory concentration (IC50) lay within 1 to 10 µM. The result for `CC1CCN(c2n[nH]c3nc(N4CCC(C)(CN)CC4)cnc23)c2ccccc21` (stereo not shown) [Compound 48] reads less than 1 µM; that for `C[C@@H]1CCN(c2n[nH]c3nc(N4CCC(C)(CN)CC4)cnc23)c2ccccc21` [Compound 49, (R)-(4-methyl-1-(3-(4-methyl-3,4-dihydroquinolin-1(2H)-yl)-1H-pyrazolo[3,4-b]pyrazin-6-yl)piperidin-4-yl)methanamine], less than 1 µM; that for `C[C@H]1CCN(c2n[nH]c3nc(N4CCC(C)(CN)CC4)cnc23)c2ccccc21` [Compound 50, (S)-(4-methyl-1-(3-(4-methyl-3,4-dihydroquinolin-1(2H)-yl)-1H-pyrazolo[3,4-b]pyrazin-6-yl)piperidin-4-yl)methanamine], less than 1 µM. The result for `CC1(CN)CCN(c2cnc3c(N4CCCc5nc(N)ccc54)n[nH]c3n2)CC1` [Compound 51, 5-(6-(4-(aminomethyl)-4-methylpiperidin-1-yl)-1H-pyrazolo[3,4-b]pyrazin-3-yl)-5,6,7,8-tetrahydro-1,5-naphthyridin-2-amine] reads less than 1 µM; that for `CC1(CN)CCN(c2cnc3c(N4CCCc5c(F)cccc54)n[nH]c3n2)CC1` [Compound 52], less than 1 µM.

For `NC1CCCC12CCN(c1cnc3c(N4CCCc5ncccc54)n[nH]c3n1)CC2` (stereo not shown) [Compound 53, 8-(3-(3,4-dihydro-1,5-naphthyridin-1(2H)-yl)-1H-pyrazolo[3,4-b]pyrazin-6-yl)-8-azaspiro[4.5]decan-1-amine], the IC50 is less than 1 µM. Turning to `CC1(N)CCN(c2cnc3c(N4CCCc5cc(C(N)=O)ccc54)n[nH]c3n2)CC1` [Compound 54, 1-(6-(4-amino-4-methylpiperidin-1-yl)-1H-pyrazolo[3,4-b]pyrazin-3-yl)-1,2,3,4-tetrahydroquinoline-6-carboxamide], the half-inhibitory concentration (IC50) was less than 1 µM.
